In general, IC50 refers to the concentration at which inhibition is half-maximal. What is called Km is the concentration of substrate that gives half-maximal velocity.

Structures can show the parent of a compound that is named as a salt. Where two headings read alike, the source gives them in different places.

One test concerns epididymal spermatozoa. Kind of test: Capacitation analysis, chlorotetracycline (CTC) assay. Conditions: for number of capacitated sperm: FIG. 6, P<0.001; for % capacitated sperm: mean ± SEM. It counts as cell-based, mouse. An excerpt:
Tissue sections were examined by immunohistochemistry (IHC) using a specific anti-PDE11 antibody. KO mice were generated using standard techniques, and PDE11 ablation confirmed by Southern blotting as well as reverse transcriptase polymerase chain reaction (RT-PCR) and IHC analysis of the testis. Fresh epididymal sperm were collected from adult mice and tested for capacitation (CP) using a chlorotetracycline assay before and after treatment with ATP—an inducer of CP.
For capacitation analyses, fresh epididymal spermatozoa were collected from adult (16 week-old) mice into Tyrodes media, and tested in triplicate using a chlorotetracycline (CTC) assay (Fraser, L. R. & Herod, J. E. Expression of capacitation-dependent changes in chlortetracycline fluorescence patterns in mouse spermatozoa requires a suitable glycolysable substrate. J. Reprod. Fert., 1990; 88(2): 611-21) both ± pre-treatment with ATP—an inducer of capacitation—to determine the functional state of the spermatozoa.
[…] The extent of capacitation was measured using chlorotetracycline (CTC), 750 μM for 15 min at 37° C. The patterns of CTC fluorescence were observed under microscopy (Reference: Fraser L R et al., 1990, J. Reprod. Fert.—see above). Patterns reflected the functional state of spermatozoa, i.e. capacitated, uncapacitated and acrosome loss.

The target in test [1] is T1, recombinant human PDE11A (Homo sapiens, UniProt Q9HCR9).
T1 construct: made in house; host or cells: Sf9 insect cells (baculovirus)
T1 sequence (Q9HCR9 445-933): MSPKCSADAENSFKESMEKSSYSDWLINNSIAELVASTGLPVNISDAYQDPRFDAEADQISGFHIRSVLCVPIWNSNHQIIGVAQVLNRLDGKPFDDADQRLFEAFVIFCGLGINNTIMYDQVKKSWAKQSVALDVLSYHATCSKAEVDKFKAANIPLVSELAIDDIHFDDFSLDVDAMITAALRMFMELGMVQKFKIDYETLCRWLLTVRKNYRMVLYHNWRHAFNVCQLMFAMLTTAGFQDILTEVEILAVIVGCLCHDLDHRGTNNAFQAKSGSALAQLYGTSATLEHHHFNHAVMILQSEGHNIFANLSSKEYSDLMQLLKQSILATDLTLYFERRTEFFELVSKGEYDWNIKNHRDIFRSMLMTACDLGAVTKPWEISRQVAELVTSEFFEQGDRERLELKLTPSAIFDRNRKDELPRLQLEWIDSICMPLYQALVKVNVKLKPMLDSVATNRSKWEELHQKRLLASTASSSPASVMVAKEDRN
Nature of the test: PDE11A inhibition, SPA-based cGMP hydrolysis assay. The test is classed as biochemical.

Another test deals with recombinant human PDE10 (Homo sapiens, UniProt Q9Y233). Kind of test: PDE10 inhibition, SPA-based assay. Conditions: Sf9 cells, geometric mean of at least 3 determinations. The test is classed as biochemical.
Chain of recombinant human PDE10 (Q9Y233 290-1055 limits assumed): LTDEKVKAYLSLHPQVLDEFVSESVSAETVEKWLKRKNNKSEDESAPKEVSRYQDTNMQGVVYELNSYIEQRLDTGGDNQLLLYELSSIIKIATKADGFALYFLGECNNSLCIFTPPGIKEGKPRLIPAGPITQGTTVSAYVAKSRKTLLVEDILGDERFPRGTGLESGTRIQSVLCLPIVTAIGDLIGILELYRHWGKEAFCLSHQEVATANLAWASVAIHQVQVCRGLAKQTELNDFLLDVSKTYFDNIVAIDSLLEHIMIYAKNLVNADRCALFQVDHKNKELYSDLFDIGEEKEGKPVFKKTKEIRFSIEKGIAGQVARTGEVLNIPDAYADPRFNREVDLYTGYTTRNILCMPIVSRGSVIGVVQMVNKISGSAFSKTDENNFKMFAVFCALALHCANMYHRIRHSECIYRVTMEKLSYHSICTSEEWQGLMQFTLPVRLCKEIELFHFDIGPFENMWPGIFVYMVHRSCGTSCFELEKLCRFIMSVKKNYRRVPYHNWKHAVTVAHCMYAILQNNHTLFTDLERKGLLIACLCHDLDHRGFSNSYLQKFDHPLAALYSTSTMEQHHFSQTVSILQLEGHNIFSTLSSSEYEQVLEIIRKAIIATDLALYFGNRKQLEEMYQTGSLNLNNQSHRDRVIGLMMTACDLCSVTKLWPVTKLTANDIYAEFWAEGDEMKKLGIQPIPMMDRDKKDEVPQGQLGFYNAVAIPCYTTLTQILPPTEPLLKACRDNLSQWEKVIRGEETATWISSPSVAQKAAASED
The target of a further test is T2, PDE6 (Bos taurus, UniProt P11541+P23439).
T2 construct: PDE6 was isolated from bovine retina; from tissue; host or cells: bovine retina
T2 sequence (P11541 2-856 limits assumed): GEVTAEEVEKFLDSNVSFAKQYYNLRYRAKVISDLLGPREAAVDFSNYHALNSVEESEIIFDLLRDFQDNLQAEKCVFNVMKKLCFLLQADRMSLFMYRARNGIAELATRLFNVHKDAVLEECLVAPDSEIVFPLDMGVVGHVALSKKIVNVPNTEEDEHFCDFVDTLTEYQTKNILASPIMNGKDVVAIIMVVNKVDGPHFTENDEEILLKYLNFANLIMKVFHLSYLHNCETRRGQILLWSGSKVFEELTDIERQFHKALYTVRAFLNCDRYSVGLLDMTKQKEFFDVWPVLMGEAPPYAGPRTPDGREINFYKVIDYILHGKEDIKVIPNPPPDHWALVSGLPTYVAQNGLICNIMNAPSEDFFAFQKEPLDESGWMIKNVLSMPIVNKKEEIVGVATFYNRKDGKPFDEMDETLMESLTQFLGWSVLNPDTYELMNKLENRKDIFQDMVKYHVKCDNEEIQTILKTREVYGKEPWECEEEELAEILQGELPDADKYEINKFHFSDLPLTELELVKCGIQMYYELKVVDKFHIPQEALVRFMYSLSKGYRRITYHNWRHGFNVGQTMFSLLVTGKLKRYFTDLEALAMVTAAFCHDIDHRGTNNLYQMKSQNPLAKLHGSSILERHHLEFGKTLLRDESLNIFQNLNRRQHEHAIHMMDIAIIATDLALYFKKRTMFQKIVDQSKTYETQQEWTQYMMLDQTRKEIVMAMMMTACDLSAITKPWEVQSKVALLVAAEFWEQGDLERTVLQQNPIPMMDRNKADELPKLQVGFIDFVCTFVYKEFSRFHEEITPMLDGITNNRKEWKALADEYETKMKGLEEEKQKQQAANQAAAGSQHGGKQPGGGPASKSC
T2 sequence (P23439 2-850 limits assumed): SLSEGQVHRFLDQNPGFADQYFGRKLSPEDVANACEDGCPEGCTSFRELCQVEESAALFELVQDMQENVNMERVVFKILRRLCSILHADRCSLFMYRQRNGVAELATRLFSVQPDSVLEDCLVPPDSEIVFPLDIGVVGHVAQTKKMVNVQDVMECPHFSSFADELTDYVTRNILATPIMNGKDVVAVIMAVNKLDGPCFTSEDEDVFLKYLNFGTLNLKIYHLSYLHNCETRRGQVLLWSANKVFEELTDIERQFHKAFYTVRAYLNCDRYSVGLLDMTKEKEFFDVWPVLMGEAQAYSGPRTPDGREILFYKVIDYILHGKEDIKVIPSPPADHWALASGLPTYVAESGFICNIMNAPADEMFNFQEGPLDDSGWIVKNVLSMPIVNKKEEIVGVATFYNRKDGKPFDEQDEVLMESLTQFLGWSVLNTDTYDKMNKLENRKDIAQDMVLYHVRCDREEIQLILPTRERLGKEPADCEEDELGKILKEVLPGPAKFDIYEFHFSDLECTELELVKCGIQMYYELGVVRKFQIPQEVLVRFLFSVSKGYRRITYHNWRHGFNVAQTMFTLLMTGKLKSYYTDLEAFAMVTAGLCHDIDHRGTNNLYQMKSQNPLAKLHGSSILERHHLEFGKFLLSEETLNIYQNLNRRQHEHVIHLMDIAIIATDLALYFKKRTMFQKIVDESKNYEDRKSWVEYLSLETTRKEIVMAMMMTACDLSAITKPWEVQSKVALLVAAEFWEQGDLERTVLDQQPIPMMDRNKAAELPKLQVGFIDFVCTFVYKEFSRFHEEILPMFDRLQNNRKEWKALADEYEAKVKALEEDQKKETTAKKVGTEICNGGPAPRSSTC
Nature of the test: PDE6 inhibition, SPA-based cGMP hydrolysis assay. It counts as biochemical. As to conditions: PDE6 isolated from bovine retina; geometric mean of at least 3 determinations.

A further test concerns the target T3, recombinant human PDE7 (Homo sapiens, UniProt Q13946).
T3 construct: made in house; host or cells: Sf9 insect cells (baculovirus)
Kind of test: PDE7 inhibition, SPA-based assay. It counts as biochemical. Conditions: Sf9 cells, geometric mean of at least 3 determinations.

Another test deals with T4, recombinant human PDE9 (Homo sapiens, UniProt O76083).
T4 construct: made in house; host or cells: Sf9 insect cells (baculovirus)
T4 sequence (O76083 whole entry): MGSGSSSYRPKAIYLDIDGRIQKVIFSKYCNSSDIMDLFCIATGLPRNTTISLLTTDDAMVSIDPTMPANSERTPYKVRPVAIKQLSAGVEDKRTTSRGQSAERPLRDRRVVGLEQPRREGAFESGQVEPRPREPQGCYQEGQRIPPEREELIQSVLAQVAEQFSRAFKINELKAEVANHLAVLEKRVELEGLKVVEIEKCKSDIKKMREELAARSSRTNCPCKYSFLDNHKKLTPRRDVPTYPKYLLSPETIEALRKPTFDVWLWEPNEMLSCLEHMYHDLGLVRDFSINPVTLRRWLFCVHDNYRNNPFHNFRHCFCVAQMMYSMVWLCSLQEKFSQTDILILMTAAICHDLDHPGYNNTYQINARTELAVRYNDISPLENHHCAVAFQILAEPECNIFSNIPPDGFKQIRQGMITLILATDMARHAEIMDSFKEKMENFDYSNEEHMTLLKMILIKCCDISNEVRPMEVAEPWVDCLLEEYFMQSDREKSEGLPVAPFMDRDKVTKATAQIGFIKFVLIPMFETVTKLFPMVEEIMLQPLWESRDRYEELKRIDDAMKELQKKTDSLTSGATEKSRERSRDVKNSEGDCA
Kind of test: PDE9 inhibition, SPA-based assay. The test is classed as biochemical. Conditions: Sf9 cells, geometric mean of at least 3 determinations.

The target in a further test is T5, recombinant human PDE8 (Homo sapiens, UniProt O60658).
T5 construct: made in house; host or cells: Sf9 insect cells (baculovirus)
T5 sequence (O60658 whole entry): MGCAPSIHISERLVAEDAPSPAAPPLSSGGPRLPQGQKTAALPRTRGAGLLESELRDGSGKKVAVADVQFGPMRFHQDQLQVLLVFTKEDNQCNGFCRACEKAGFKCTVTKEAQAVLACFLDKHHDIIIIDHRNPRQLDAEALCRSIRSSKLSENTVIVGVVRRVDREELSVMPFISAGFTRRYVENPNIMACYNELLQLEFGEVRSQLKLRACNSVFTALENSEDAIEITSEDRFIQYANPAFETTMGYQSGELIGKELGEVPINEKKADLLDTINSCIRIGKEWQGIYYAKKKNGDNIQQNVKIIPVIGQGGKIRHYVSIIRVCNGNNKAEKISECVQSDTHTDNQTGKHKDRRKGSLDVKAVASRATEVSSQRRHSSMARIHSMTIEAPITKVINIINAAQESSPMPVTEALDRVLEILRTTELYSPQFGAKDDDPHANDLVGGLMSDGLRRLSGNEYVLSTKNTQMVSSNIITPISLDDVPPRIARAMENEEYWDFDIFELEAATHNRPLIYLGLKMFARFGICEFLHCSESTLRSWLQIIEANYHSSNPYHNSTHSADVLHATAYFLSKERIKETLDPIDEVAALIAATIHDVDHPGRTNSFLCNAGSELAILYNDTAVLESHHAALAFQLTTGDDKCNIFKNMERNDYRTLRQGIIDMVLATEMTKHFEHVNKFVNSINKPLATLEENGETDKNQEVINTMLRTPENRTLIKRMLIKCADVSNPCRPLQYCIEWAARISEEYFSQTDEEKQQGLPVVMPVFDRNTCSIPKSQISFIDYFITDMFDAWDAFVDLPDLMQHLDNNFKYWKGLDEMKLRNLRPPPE
Kind of test: PDE8 inhibition, SPA-based assay. As to conditions: Sf9 cells, geometric mean of at least 3 determinations. The test is classed as biochemical.

For test [2], the target named is T1, recombinant human PDE11A. Conditions: substrate hydrolysis by recombinant human PDE11A; cited from earlier work.

T3 sequence (Q13946 whole entry): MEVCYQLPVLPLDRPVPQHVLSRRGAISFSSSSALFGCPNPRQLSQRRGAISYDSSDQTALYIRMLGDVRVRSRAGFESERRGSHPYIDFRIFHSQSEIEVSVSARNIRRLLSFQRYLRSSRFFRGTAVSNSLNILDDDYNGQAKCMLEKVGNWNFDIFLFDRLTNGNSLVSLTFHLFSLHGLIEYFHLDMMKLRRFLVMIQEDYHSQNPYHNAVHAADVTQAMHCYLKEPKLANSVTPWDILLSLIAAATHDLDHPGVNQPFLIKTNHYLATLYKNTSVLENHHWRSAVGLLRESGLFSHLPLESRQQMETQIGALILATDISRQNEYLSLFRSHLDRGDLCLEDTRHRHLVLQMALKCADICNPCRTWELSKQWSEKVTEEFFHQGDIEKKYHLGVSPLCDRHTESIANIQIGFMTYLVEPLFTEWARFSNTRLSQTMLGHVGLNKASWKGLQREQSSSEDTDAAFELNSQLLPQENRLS

Regarding `Nc1ncnc2c1ncn2[C@@H]1O[C@H](COP(=O)(O)OP(=O)(O)OP(=O)(O)O)[C@@H](O)[C@H]1O` [ATP, adenosine-5′-triphosphate], the “number of capacitated sperm” value in the test on epididymal spermatozoa (ATP 1.0 mM, spermatozoa from PDE11 KO mice only) is reported as “significantly increased”; with epididymal spermatozoa (ATP 2.5 mM, all murine spermatozoa samples, 1 hr incubation), “significantly increased”. Moreover, the “number of capacitated murine spermatozoa” value in the test on epididymal spermatozoa (PDE11 knockout and wild type samples, after 1 hr incubation) is reported as “significantly increased”. Further, the “% capacitated sperm” value with epididymal spermatozoa (Table 2, PDE11 KO (−/−) mice, pre-treatment +1mM ATP, n = 3 animals) is given as 45.9 ± 7.0%; with epididymal spermatozoa (Table 2, PDE11 KO (−/−) mice, pre-treatment +2.5 mM ATP, n = 3 animals) it was 73.9 ± 5.6%; with epididymal spermatozoa (Table 2, Wild-type (+/+) mice, pre-treatment +1mM ATP, n = 3 animals), 41.4 ± 8.2%; in the test with epididymal spermatozoa (Table 2, Wild-type (+/+) mice, pre-treatment +2.5 mM ATP, n = 3 animals), 73.5 ± 5.1%; with epididymal spermatozoa (Table 3, PDE11 KO (−/−) mice, pre-treatment +1 mM ATP, n = 4), 48.4 ± 4.0%; with epididymal spermatozoa (Table 3, PDE11 KO (−/−) mice, pre-treatment +2.5 mM ATP, n = 4), 77.6 ± 3.8%. Moreover, the “% capacitated sperm” value is 47.1 ± 5.1% with epididymal spermatozoa (Table 3, Wild-type (+/+) mice, pre-treatment +1 mM ATP, n = 4) and 78.4 ± 3.3% in the test on epididymal spermatozoa (Table 3, Wild-type (+/+) mice, pre-treatment +2.5 mM ATP, n = 4).
Regarding `O=C(O)C1CCN(c2nc(NCc3ccc4c(c3)OCO4)c3cc(Cl)ccc3n2)CC1` [Compound E4021, 1-[4-[(1,3-benzodioxol-5-ylmethyl)amino]-6-chloro-2-quinazolinyl]-4-piperidinecarboxylic acid, monohydrochloride], the IC50 is 0.572 µM at recombinant human PDE11A [1]; more than 100 µM at recombinant human PDE10; 0.0047 µM at PDE6; more than 100 µM on recombinant human PDE7; more than 100 µM at recombinant human PDE9; more than 100 µM on recombinant human PDE8.
For the compound `CN1CC(=O)N2[C@H](c3ccc4c(c3)OCO4)c3[nH]c4ccccc4c3C[C@@H]2C1=O` [IC351, (6R,12aR)-6-(1,3-benzodioxol-5-yl)-2,3,6,7,12,12a-hexahydro-2-methyl-pyrazino[1′,2′: 1,6]pyrido[3,4-b]indole-1,4-dione], the IC50 at recombinant human PDE10 was more than 100 µM; on PDE6 it was 1.5 µM; on recombinant human PDE7 it was more than 100 µM; on recombinant human PDE9, more than 100 µM; on recombinant human PDE8, more than 100 µM.
Regarding `CCCc1nn(C)c2c(=O)[nH]c(-c3cc(S(=O)(=O)N4CCN(C)CC4)ccc3OCC)nc12` [Sildenafil, 5-[2-ethoxy-5-(4-methyl-1-piperazinylsulphonyl)phenyl]-1-methyl-3-n-propyl-1,6-dihydro-7H-pyrazolo[4,3-d]pyrimidin-7-one], at recombinant human PDE7, the IC50 was found to be 19.7 µM.
As for `Clc1ccc2nc(-n3ccnc3)nc(NCc3ccccc3)c2c1` [UK-235,187, 6-Chloro-2-(1H-imidazol-1-yl)-N-(phenylmethyl)-,4-quinazolinamine, dihydrochloride], the half-inhibitory concentration (IC50) at recombinant human PDE11A [1] (recombinant human, Sf9 cells, 69 nM cGMP, geometric mean of at least 3 determinations, read-out: IC50 PDE11A) was 0.0466 µM; on recombinant human PDE10 it was more than 100 µM; at PDE6 it was 1 µM; at recombinant human PDE9, more than 100 µM.
With `Nc1nc2c(ncn2[C@@H]2O[C@@H]3COP(=O)(O)O[C@H]3[C@H]2O)c(=O)[nH]1` [cGMP, cyclic guanine 3′,5′-monophosphate], the Michaelis constant (Km) at recombinant human PDE11A [2] was 0.52 µM.

These data come from patent US20030229002A1, “Use of agents that modulate PDE11A activity” (Pfizer Inc., priority 2002, published 2003).
